Patent US9139557B2, “Carboxamide compounds and their use as calpain inhibitors” (Abbott GmbH & Co. KG, priority 2006, dated 2015)

Key:
Type in all cases: biochemical
cathepsin B = molecular target: T1, cathepsin B (Homo sapiens, UniProt P07858); test: Cathepsin B enzyme inhibition in vitro (kinetic fluorescence assay); details: Ki(cathepsin B)/Ki(calpain) ratio
T1 construct: cathepsin B—isolated from human liver; purchased Calbiochem 219362; host or cells: human liver (tissue isolate)
Procedure, shortened: (§1)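 Kinetic fluorescence (ex 390/em 460 nm), room temperature: calpain-I (human erythrocyte, 20 nM) with 100 µM Suc-Leu-Tyr-AMC, imidazole/CaCl2 pH 7.3; cathepsin B (liver, 0.25 nM), 100 µM Z-Phe-Arg-AMC; L (liver, 1 nM), 2 µM Z-Phe-Arg-AMC; S (recombinant, 0.5 nM), 20 µM Z-Val-Val-Arg-AMC; cathepsins in MES/EDTA/cysteine pH 6.0. Apparent Ki via Cheng-Prusoff, 2–4 curves averaged.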

cathepsin K = molecular target: T2, cathepsin K (Homo sapiens, UniProt P43235); test: Cathepsin K enzyme inhibition in vitro (kinetic fluorescence assay); details: Ki(cathepsin K)/Ki(calpain) ratio
T2 construct: purchased Calbiochem 342001; host or cells: E. coli
T2 sequence (P43235 115-329): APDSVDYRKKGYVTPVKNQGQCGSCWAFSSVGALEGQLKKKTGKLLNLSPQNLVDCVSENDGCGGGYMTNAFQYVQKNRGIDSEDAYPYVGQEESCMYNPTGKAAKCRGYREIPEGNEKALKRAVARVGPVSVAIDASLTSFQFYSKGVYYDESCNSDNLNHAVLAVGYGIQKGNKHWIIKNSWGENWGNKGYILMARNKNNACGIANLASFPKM

cathepsin S = molecular target: T3, cathepsin S (Homo sapiens, UniProt P25774); test: Cathepsin S enzyme inhibition in vitro (kinetic fluorescence assay); details: Ki(cathepsin S)/Ki(calpain) ratio
T3 construct: purchased Calbiochem 219343; host or cells: E. coli
T3 sequence (P25774 115-331): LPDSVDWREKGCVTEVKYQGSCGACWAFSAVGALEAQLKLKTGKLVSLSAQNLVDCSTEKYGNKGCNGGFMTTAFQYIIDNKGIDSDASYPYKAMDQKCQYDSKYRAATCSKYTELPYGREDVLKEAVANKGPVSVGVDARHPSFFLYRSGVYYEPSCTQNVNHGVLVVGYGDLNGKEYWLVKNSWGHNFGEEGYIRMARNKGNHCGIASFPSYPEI
Procedure, shortened: as §1

cathepsin L = molecular target: T4, cathepsin L (Homo sapiens, UniProt P07711); test: Cathepsin L enzyme inhibition in vitro (kinetic fluorescence assay); details: Ki(cathepsin L)/Ki(calpain) ratio
T4 construct: cathepsin L—isolated from human liver; purchased Calbiochem 219402; host or cells: human liver (tissue isolate)
T4 sequence (P07711 114-333): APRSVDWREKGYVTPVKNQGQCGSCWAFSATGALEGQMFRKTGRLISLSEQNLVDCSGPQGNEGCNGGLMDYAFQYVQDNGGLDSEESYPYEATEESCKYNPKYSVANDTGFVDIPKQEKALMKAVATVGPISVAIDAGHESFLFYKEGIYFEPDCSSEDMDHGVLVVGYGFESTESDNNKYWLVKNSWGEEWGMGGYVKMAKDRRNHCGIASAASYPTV
Procedure, shortened: as §1

Structure (SMILES)	Sel cat. B (cathepsin B)	Sel cat. K (cathepsin K)	Sel cat. S (cathepsin S)	Sel cat. L (cathepsin L)
NC(=O)C(=O)C(Cc1ccc(OCc2ccccc2)cc1)NC(=O)c1cccnc1-n1ccc(-c2ccccc2)n1 (stereo not shown) [Example 127, N-[3-Amino-2,3-dioxo-1-({4-[(phenylmethyl)oxy]phenyl}methyl)propyl]-2-(3-phenyl-1H-pyrazol-1-yl)pyridine-3-carboxamide]	++ (++ means a Ki(cathepsin B)/Ki(calpain) ratio of ≧30)	++ (++ means a Ki(cathepsin K)/Ki(calpain) ratio of ≧30)	++ (++ means a Ki(cathepsin S)/Ki(calpain) ratio of ≧100)	++ (++ means a Ki(cathepsin L)/Ki(calpain) ratio of ≧50)
NC(=O)C(=O)C(Cc1ccccc1)NC(=O)c1cccnc1-n1ccc(-c2ccccc2OC(F)(F)F)n1 (stereo not shown) [Example 124, N-[3-Amino-2,3-dioxo-1-(phenylmethyl)propyl]-2-(3-{2-[(trifluoromethyl)oxy]phenyl}-1H-pyrazol-1-yl)pyridine-3-carboxamide]	++ (++ means a Ki(cathepsin B)/Ki(calpain) ratio of ≧30)	++ (++ means a Ki(cathepsin K)/Ki(calpain) ratio of ≧30)	++ (++ means a Ki(cathepsin S)/Ki(calpain) ratio of ≧100)	++ (++ means a Ki(cathepsin L)/Ki(calpain) ratio of ≧50)
NC(=O)C(=O)C(Cc1ccccc1)NC(=O)c1cccnc1-n1cc2c(n1)-c1ccccc1S(=O)(=O)C2 (stereo not shown) [Example 174, N-[3-Amino-2,3-dioxo-1-(phenylmethyl)propyl]-2-(5,5-dioxidothiochromeno[4,3-c]pyrazol-2(4H)-yl)pyridine-3-carboxamide]	+ (+ means 10≦Ki(cathepsin B)/Ki(calpain)<30)	+ (+ means 10≦Ki(cathepsin K)/Ki(calpain)<30)	++ (++ means a Ki(cathepsin S)/Ki(calpain) ratio of ≧100)	++ (++ means a Ki(cathepsin L)/Ki(calpain) ratio of ≧50)
NC(=O)C(=O)C(Cc1ccccc1)NC(=O)c1cccnc1-n1ccc(-c2cccc(C(F)(F)F)c2)n1 (stereo not shown) [Example 83, N-(3-Amino-1-benzyl-2,3-dioxopropyl)-2-{3-[3-(trifluoromethyl)phenyl]-1H-pyrazol-1-yl}nicotinamide]	+ (+ means 10≦Ki(cathepsin B)/Ki(calpain)<30)	++ (++ means a Ki(cathepsin K)/Ki(calpain) ratio of ≧30)	++ (++ means a Ki(cathepsin S)/Ki(calpain) ratio of ≧100)	++ (++ means a Ki(cathepsin L)/Ki(calpain) ratio of ≧50)
COc1ccc(CC(NC(=O)c2cccnc2-n2ccc(-c3ccccc3)n2)C(=O)C(N)=O)cc1 (stereo not shown) [Example 80, N-[3-Amino-1-(4-methoxybenzyl)-2,3-dioxopropyl]-2-(3-phenyl-1H-pyrazol-1-yl)nicotinamide]	++ (++ means a Ki(cathepsin B)/Ki(calpain) ratio of ≧30)	+ (+ means 10≦Ki(cathepsin K)/Ki(calpain)<30)	++ (++ means a Ki(cathepsin S)/Ki(calpain) ratio of ≧100)	++ (++ means a Ki(cathepsin L)/Ki(calpain) ratio of ≧50)
COc1ccc(-c2ccn(-c3ncccc3C(=O)NC(Cc3ccccc3)C(=O)C(N)=O)n2)cc1 (stereo not shown) [Example 48, N-(3-Amino-1-benzyl-2,3-dioxopropyl)-2-[3-(4-methoxyphenyl)-1H-pyrazol-1-yl]nicotinamide]	+ (+ means 10≦Ki(cathepsin B)/Ki(calpain)<30)	+ (+ means 10≦Ki(cathepsin K)/Ki(calpain)<30)	++ (++ means a Ki(cathepsin S)/Ki(calpain) ratio of ≧100)	++ (++ means a Ki(cathepsin L)/Ki(calpain) ratio of ≧50)
NC(=O)C(=O)C(Cc1ccc(F)cc1)NC(=O)c1cccnc1-n1ccc(-c2ccccc2)n1 (stereo not shown) [Example 123, N-{3-Amino-1-[(4-fluorophenyl)methyl]-2,3-dioxopropyl}-2-(3-phenyl-1H-pyrazol-1-yl)pyridine-3-carboxamide]	++ (++ means a Ki(cathepsin B)/Ki(calpain) ratio of ≧30)	++ (++ means a Ki(cathepsin K)/Ki(calpain) ratio of ≧30)	++ (++ means a Ki(cathepsin S)/Ki(calpain) ratio of ≧100)	++ (++ means a Ki(cathepsin L)/Ki(calpain) ratio of ≧50)
